US20060063759A1, “Tricyclic steroid hormone nuclear receptor modulators” (priority 2002, published 2006)

Experiments:
[1] = target: T1, glucocorticoid receptor (Homo sapiens, UniProt P04150); assay: Glucocorticoid Receptor Binding Assay ([3H]-dexamethasone, A549 cell extract); conditions: [3H]-dexamethasone binding, read-out: GR Ki
T1 construct: containing 50-200 ug of A549 cell extract and 1.86 nM [^3H]-dexamethasone; host or cells: A549 human lung epithelial cells (sonicated cell extract)
T1 sequence (P04150 1-777): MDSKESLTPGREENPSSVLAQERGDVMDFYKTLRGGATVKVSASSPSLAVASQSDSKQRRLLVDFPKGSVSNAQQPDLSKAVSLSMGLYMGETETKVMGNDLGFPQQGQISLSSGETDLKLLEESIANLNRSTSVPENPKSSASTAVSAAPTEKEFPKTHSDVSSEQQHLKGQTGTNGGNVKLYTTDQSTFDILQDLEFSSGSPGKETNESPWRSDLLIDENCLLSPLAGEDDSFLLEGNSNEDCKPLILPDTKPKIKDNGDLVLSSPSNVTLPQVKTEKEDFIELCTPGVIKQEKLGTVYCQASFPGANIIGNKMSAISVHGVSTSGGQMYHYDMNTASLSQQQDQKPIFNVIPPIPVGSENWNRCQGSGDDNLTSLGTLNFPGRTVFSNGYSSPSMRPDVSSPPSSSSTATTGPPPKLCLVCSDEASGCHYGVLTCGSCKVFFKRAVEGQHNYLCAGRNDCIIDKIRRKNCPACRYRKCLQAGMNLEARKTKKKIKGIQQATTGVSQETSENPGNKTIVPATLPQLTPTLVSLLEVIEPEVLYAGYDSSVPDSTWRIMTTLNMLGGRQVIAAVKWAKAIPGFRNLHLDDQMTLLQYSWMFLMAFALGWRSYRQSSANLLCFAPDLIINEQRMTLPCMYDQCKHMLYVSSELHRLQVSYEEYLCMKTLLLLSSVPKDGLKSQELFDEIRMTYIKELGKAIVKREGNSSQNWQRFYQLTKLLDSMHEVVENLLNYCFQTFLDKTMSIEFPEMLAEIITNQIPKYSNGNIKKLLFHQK
Method in brief: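 Displacement of [3H]-dexamethasone (1.86 nM) from glucocorticoid receptor in sonicated A549 lung epithelial cell extracts, 16 h at 4 °C, pH 7.2 molybdate-containing buffer. Bound radioactivity was scintillation-counted after charcoal/dextran stripping of free ligand.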

[2] = target: T2, human MR (Homo sapiens, UniProt P08235); assay: Mineralocorticoid Receptor Binding Assay ([3H]-aldosterone); conditions: [3H]-aldosterone binding, human MR expressed in Sf9 cells; read-out: MR Ki
T2 construct: The full length human MR gene is cloned from a human kidney or human brain cDNA library; His tag from the pAcHLT vector (own knowledge); made in house; host or cells: Sf9 insect cells (baculovirus, pAcHLT transfer vector)
T2 sequence (P08235 1-984): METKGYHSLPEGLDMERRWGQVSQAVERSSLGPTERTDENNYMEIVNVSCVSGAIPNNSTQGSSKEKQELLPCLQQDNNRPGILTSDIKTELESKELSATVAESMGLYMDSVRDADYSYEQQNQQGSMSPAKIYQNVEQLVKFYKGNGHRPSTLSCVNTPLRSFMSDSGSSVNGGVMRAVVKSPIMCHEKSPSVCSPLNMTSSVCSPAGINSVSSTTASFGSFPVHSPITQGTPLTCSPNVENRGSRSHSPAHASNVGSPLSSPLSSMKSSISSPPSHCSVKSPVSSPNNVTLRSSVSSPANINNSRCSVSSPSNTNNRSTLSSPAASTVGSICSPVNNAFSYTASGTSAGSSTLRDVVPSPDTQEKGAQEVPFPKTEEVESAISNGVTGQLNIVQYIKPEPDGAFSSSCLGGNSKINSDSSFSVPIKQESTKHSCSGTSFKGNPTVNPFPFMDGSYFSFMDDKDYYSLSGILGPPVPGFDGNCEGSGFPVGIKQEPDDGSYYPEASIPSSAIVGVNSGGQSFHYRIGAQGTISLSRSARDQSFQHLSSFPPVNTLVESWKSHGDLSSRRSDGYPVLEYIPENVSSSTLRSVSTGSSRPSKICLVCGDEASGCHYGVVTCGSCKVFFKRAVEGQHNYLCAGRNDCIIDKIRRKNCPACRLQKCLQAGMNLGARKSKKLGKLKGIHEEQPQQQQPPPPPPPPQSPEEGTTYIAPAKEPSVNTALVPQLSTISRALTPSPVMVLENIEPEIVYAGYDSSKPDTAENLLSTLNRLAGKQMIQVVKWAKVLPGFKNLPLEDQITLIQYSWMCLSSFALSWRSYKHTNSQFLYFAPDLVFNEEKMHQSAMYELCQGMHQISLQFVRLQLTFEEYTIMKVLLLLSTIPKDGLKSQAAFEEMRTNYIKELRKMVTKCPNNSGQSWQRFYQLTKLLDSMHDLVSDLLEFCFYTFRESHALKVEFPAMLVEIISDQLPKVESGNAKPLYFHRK
Method in brief: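 Receptor source: freeze-thaw lysate of baculovirus-infected Sf9 cells carrying full-length human MR, 20-25 μg protein. Incubation ~16 h at 4 °C with shaking, pH 7.5 buffer containing 30 mM sodium molybdate and 10% glycerol.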

Ki [1] | Ki [2] | Compound
< 1000 nM | < 500 nM | COc1cc(C=C2c3ccccc3CCc3ccccc32)ccc1F [Example 148, 5-(4-Fluoro-3-methoxy-benzylidene)-10,11-dihydro-5H-dibenzo[a,d]cycloheptene]
< 500 nM | < 500 nM | Oc1cc(C=C2c3ccccc3CCc3ccccc32)ccc1F [Example 149, 5-(10,11-Dihydro-dibenzo[a,d]cyclohepten-5-ylidenemethyl)-2-fluoro-phenol]
< 1000 nM | < 500 nM | Oc1ccc(F)c(C=C2c3ccccc3CCc3ccccc32)c1 [Example 151, 3-(10,11-Dihydro-dibenzo[a,d]cyclohepten-5-ylidenemethyl)-4-fluoro-phenol]
< 10000 nM | < 500 nM | COc1cccc(C=C2c3ccccc3CCc3ccccc32)c1F [Example 152, 5-(2-Fluoro-3-methoxy-benzylidene)-10,11-dihydro-5H-dibenzo[a,d]cycloheptene]
< 1000 nM | < 500 nM | COc1cc(F)cc(C=C2c3ccccc3CCc3ccccc32)c1 [Example 154, 5-(3-Fluoro-5-methoxy-benzylidene)-10,11-dihydro-5H-dibenzo[a,d]cycloheptene]
< 500 nM | < 500 nM | Oc1cc(F)cc(C=C2c3ccccc3CCc3ccccc32)c1 [Example 155, 3-(10,11-Dihydro-dibenzo[a,d]cyclohepten-5-ylidenemethyl)-5-fluoro-phenol]
< 1000 nM | < 500 nM | Oc1cc(C=C2c3ccccc3CCc3ccccc32)ccc1Cl [Example 157, 2-Chloro-5-(10,11-dihydro-dibenzo[a,d]cyclohepten-5-ylidenemethyl)-phenol]
< 500 nM | < 500 nM | COc1ccc2c(c1)CCc1ccccc1C2=Cc1cccc(NS(C)(=O)=O)c1 [Example 161, N-[3-(2-Methoxy-10,11-dihydro-dibenzo[a,d]cyclohepten-5-ylidenemethyl)-phenyl]-methanesulfonamide]
< 1000 nM | < 500 nM | COc1cc2c(cc1OC)C(=Cc1cccc(NS(C)(=O)=O)c1)c1ccccc1CC2 [Example 170(a), N-[3-(2,3-Dimethoxy-10,11-dihydro-dibenzo[a,d]cyclohepten-5-ylidenemethyl)-phenyl]-methanesulfonamide]
< 500 nM | < 500 nM | COc1cc2c(cc1OC)C(=Cc1cccc(NS(C)(=O)=O)c1)c1ccccc1CC2 [Example 170(b), N-[3-(2,3-Dimethoxy-10,11-dihydro-dibenzo[a,d]cyclohepten-5-ylidenemethyl)-phenyl]-methanesulfonamide]
< 1000 nM | < 500 nM | FC(F)(F)c1ccccc1C=C1c2ccccc2CCc2cc(Cl)ccc21 [Example 174, 2-Chloro-5-(2-trifluoromethyl-benzylidene)-10,11-dihydro-5H-dibenzo[a,d]cycloheptene]
< 10000 nM | < 500 nM | Cc1ccccc1C=C1c2ccccc2CCc2cc(Cl)ccc21 [Example 175, 2-Chloro-5-(2-methyl-benzylidene)-10,11-dihydro-5H-dibenzo[a,d]cycloheptene]
< 1000 nM | < 500 nM | Cc1cccc(C=C2c3ccccc3CCc3cc(Cl)ccc32)c1 [Example 177, 2-Chloro-5-(3-methyl-benzylidene)-10,11-dihydro-5H-dibenzo[a,d]cycloheptene]
< 1000 nM | < 500 nM | Oc1ccc(C=C2c3ccccc3CCc3cc(Cl)ccc32)cc1 [Example 180, 4-(2-Chloro-10,11-dihydro-dibenzo[a,d]cyclohepten-5-ylidenemethyl)-phenol]
< 500 nM | < 500 nM | Oc1cccc(C=C2c3ccc(Cl)cc3CCc3cc(Cl)ccc32)c1 [Example 183, 3-(2,8-Dichloro-10,11-dihydro-dibenzo[a,d]cyclohepten-5-ylidenemethyl)-phenol]
< 500 nM | < 500 nM | Oc1cccc(CC2c3ccccc3CCc3c(F)cccc32)c1 (centres unmarked) [Example 186, 3-(1-Fluoro-10,11-dihydro-5H-dibenzo[a,d]cyclohepten-5-ylmethyl)-phenol]
< 500 nM | < 500 nM | CS(=O)(=O)Nc1cccc(CC2c3ccccc3CCc3c(F)cccc32)c1 (centres unmarked) [Example 187, N-[3-(1-Fluoro-10,11-dihydro-5H-dibenzo[a,d]cyclohepten-5-ylmethyl)-phenyl]-methanesulfonamide]
< 500 nM | < 500 nM | CS(=O)(=O)Nc1cccc(CC2c3ccccc3CCc3ccc(Cl)cc32)c1 (centres unmarked) [Example 189, N-[3-(3-Chloro-10,11-dihydro-5H-dibenzo[a,d]cyclohepten-5-ylmethyl)-phenyl]-methanesulfonamide]
< 500 nM | < 500 nM | CS(=O)(=O)Nc1cccc(C=C2c3ccc(O)cc3CCc3cc(O)ccc32)c1 [Example 192, N-[3-(2,8-Dihydroxy-10,11-dihydro-dibenzo[a,d]cyclohepten-5-ylidenemethyl)-phenyl]-methanesulfonamide]
< 500 nM | < 500 nM | COc1ccc2c(c1)CCc1cc(OC)ccc1C2=Cc1cccc(O)c1 [Example 193, 3-(2,8-Dimethoxy-10,11-dihydro-dibenzo[a,d]cyclohepten-5-ylidenemethyl)-phenol]
< 500 nM | < 500 nM | Oc1cccc(C=C2c3ccc(O)cc3CCc3cc(O)ccc32)c1 [Example 194, 5-(3-Hydroxy-benzylidene)-10,11-dihydro-5H-dibenzo[a,d]cycloheptene-2,8-diol]
< 500 nM | < 500 nM | CS(=O)(=O)Nc1cccc(/C=C2\c3ccccc3CCc3cc(OCCN4CCOCC4)ccc32)c1 [Example 196, N-{3-[2-(2-Morpholin-4-yl-ethoxy)-10,11-dihydro-dibenzo[a,d]cyclohepten-5-ylidenemethyl]-phenyl}-methanesulfonamide]
< 500 nM | < 500 nM | CS(=O)(=O)Nc1cccc(C=C2c3cccc(F)c3CCc3c(F)cccc32)c1 [Example 201, N-[3-(1,9-Difluoro-10,11-dihydro-dibenzo[a,d]cyclohepten-5-ylidenemethyl)-phenyl]-methanesulfonamide]
< 500 nM | < 500 nM | CS(=O)(=O)Nc1cccc(C=C2c3ccccc3CCc3c(Cl)cccc32)c1 [Example 205(b), N-[3-(1-Chloro-10,11-dihydro-dibenzo[a,d]cyclohepten-5-ylidenemethyl)-phenyl]-methanesulfonamide]
< 500 nM | < 500 nM | CCS(=O)(=O)Nc1cccc(C=C2c3ccccc3CCc3c(Cl)cccc32)c1 [Example 208(b), Ethanesulfonic acid [3-(1-chloro-10,11-dihydro-dibenzo[a,d]cyclohepten-5-ylidenemethyl)-phenyl]-amide]
